Laboratory results: PubChem BioAssay (NCI)
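Assay format: 96-well plates, 48-hour exposure. GI50 is the concentration that inhibits growth by half. TGI is the concentration that stops growth completely.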

Columns and labels:
Experiment in all cases: DTP human tumour cell line panel, 48 h
CCRF-CEM leukemia = tested on: CCRF-CEM leukemia
NCI-H522 lung = tested on: NCI-H522 lung
HL-60(TB) leukemia = tested on: HL-60(TB) leukemia
K-562 leukemia = tested on: K-562 leukemia
RPMI-8226 leukemia = tested on: RPMI-8226 leukemia
UACC-62 melanoma = tested on: UACC-62 melanoma
BT-549 breast = tested on: BT-549 breast
SK-MEL-2 melanoma = tested on: SK-MEL-2 melanoma
SNB-75 CNS = tested on: SNB-75 CNS
TK-10 renal = tested on: TK-10 renal
SW-620 colon = tested on: SW-620 colon
HT29 colon = tested on: HT29 colon
MDA-MB-231 breast = tested on: MDA-MB-231 breast
CAKI-1 renal = tested on: CAKI-1 renal
NCI-H226 lung = tested on: NCI-H226 lung
HOP-62 NSCLC = tested on: HOP-62 NSCLC
MCF7 breast = tested on: MCF7 breast
OVCAR-8 ovarian = tested on: OVCAR-8 ovarian
HS 578T breast = tested on: HS 578T breast
OVCAR-4 ovarian = tested on: OVCAR-4 ovarian
T-47D breast = tested on: T-47D breast
DU-145 prostate = tested on: DU-145 prostate
EKVX NSCLC = tested on: EKVX NSCLC
UACC-257 melanoma = tested on: UACC-257 melanoma
HOP-92 NSCLC = tested on: HOP-92 NSCLC
OVCAR-3 ovarian = tested on: OVCAR-3 ovarian
OVCAR-5 ovarian = tested on: OVCAR-5 ovarian
786-0 renal = tested on: 786-0 renal
PC-3 prostate = tested on: PC-3 prostate
COLO 205 colon = tested on: COLO 205 colon
RXF 393 renal = tested on: RXF 393 renal
SN12C renal = tested on: SN12C renal
SK-OV-3 ovarian = tested on: SK-OV-3 ovarian
SNB-19 CNS = tested on: SNB-19 CNS
U251 CNS = tested on: U251 CNS
SF-295 CNS = tested on: SF-295 CNS
MALME-3M melanoma = tested on: MALME-3M melanoma
IGROV1 ovarian = tested on: IGROV1 ovarian
A498 renal = tested on: A498 renal
HCC-2998 colon = tested on: HCC-2998 colon
ACHN renal = tested on: ACHN renal
SF-539 CNS = tested on: SF-539 CNS
SF-268 CNS = tested on: SF-268 CNS
KM12 colon = tested on: KM12 colon
SK-MEL-28 melanoma = tested on: SK-MEL-28 melanoma
NCI-H460 lung = tested on: NCI-H460 lung

Structure (SMILES): CC(C)(Oc1ccc(/C=C/C(=O)c2ccccc2)cc1)C(=O)Nc1c(Cl)cccc1Cl
- TGI (CCRF-CEM leukemia): > 31.6 µM
- TGI (NCI-H522 lung): 9.86 µM
- TGI (HL-60(TB) leukemia): 23.6 µM
- TGI (K-562 leukemia): > 100 µM

Structure (SMILES): CCOC(=O)C1=CSC2=NC3=C(CCC/C3=C\c3cc(OC)c(OC)c(OC)c3)C(c3cc(OC)c(OC)c(OC)c3)N12 (centres undefined)
- GI50 (RPMI-8226 leukemia): 0.333 µM
- TGI (RPMI-8226 leukemia): 1.67 µM
- GI50 (UACC-62 melanoma): 2.71 µM
- TGI (UACC-62 melanoma): > 100 µM
- GI50 (BT-549 breast): 2.64 µM
- TGI (BT-549 breast): > 100 µM
- GI50 (SK-MEL-2 melanoma): > 100 µM
- TGI (SK-MEL-2 melanoma): > 100 µM
- GI50 (SNB-75 CNS): 3.74 µM
- TGI (SNB-75 CNS): > 100 µM
- GI50 (TK-10 renal): 4.33 µM
- TGI (TK-10 renal): > 100 µM
- GI50 (CCRF-CEM leukemia): 0.47 µM
- TGI (CCRF-CEM leukemia): 3.74 µM
- GI50 (SW-620 colon): 1.54 µM
- TGI (SW-620 colon): > 100 µM
- GI50 (HT29 colon): 1.34 µM
- TGI (HT29 colon): > 100 µM
- GI50 (MDA-MB-231 breast): 3.2 µM
- TGI (MDA-MB-231 breast): > 100 µM
- GI50 (CAKI-1 renal): 6.77 µM
- TGI (CAKI-1 renal): > 100 µM
- GI50 (NCI-H226 lung): 2.4 µM
- TGI (NCI-H226 lung): > 100 µM
- GI50 (HOP-62 NSCLC): 1.43 µM
- TGI (HOP-62 NSCLC): > 100 µM
- GI50 (MCF7 breast): 2.66 µM
- TGI (MCF7 breast): > 100 µM
- GI50 (OVCAR-8 ovarian): 0.376 µM
- TGI (OVCAR-8 ovarian): > 100 µM
- GI50 (HS 578T breast): 2.47 µM
- TGI (HS 578T breast): > 100 µM
- GI50 (OVCAR-4 ovarian): 1.32 µM
- TGI (OVCAR-4 ovarian): > 100 µM
- GI50 (T-47D breast): 3.83 µM
- TGI (T-47D breast): > 100 µM
- GI50 (DU-145 prostate): 3.48 µM
- TGI (DU-145 prostate): > 100 µM
- GI50 (EKVX NSCLC): > 100 µM
- TGI (EKVX NSCLC): > 100 µM
- GI50 (UACC-257 melanoma): 1.73 µM
- TGI (UACC-257 melanoma): > 100 µM
- GI50 (HOP-92 NSCLC): 0.818 µM
- TGI (HOP-92 NSCLC): 7.5 µM
- GI50 (OVCAR-3 ovarian): 2.96 µM
- TGI (OVCAR-3 ovarian): > 100 µM
- GI50 (OVCAR-5 ovarian): > 100 µM
- TGI (OVCAR-5 ovarian): > 100 µM
- GI50 (786-0 renal): > 100 µM
- TGI (786-0 renal): > 100 µM
- GI50 (PC-3 prostate): 0.751 µM
- TGI (PC-3 prostate): > 100 µM
- GI50 (COLO 205 colon): 3.05 µM
- TGI (COLO 205 colon): > 100 µM

Structure (SMILES): CN1CCOCCOCCOc2ccccc2NC(=O)c2nc(cnc2N)-c2ccc(cc2)S1(=O)=O
- GI50 (RXF 393 renal): 1.59 µM
- TGI (RXF 393 renal): 21.9 µM
- GI50 (SN12C renal): > 100 µM
- TGI (SN12C renal): > 100 µM
- GI50 (SK-OV-3 ovarian): 7.12 µM
- TGI (SK-OV-3 ovarian): > 100 µM
- GI50 (BT-549 breast): 7.77 µM
- TGI (BT-549 breast): > 100 µM
- GI50 (SNB-75 CNS): 2.85 µM
- TGI (SNB-75 CNS): 17.7 µM
- GI50 (TK-10 renal): 11.3 µM
- TGI (TK-10 renal): 49.4 µM
- GI50 (SNB-19 CNS): 16.6 µM
- TGI (SNB-19 CNS): > 100 µM
- GI50 (MDA-MB-231 breast): 32.4 µM
- TGI (MDA-MB-231 breast): > 100 µM
- GI50 (U251 CNS): 5.16 µM
- TGI (U251 CNS): > 100 µM
- GI50 (SF-295 CNS): 4.52 µM
- TGI (SF-295 CNS): > 100 µM
- GI50 (NCI-H226 lung): 59.9 µM
- TGI (NCI-H226 lung): > 100 µM
- GI50 (HOP-62 NSCLC): 14.7 µM
- TGI (HOP-62 NSCLC): 46.2 µM
- GI50 (MCF7 breast): 0.0397 µM
- TGI (MCF7 breast): > 100 µM
- GI50 (MALME-3M melanoma): > 100 µM
- TGI (MALME-3M melanoma): > 100 µM
- GI50 (OVCAR-8 ovarian): 7.1 µM
- TGI (OVCAR-8 ovarian): > 100 µM
- GI50 (IGROV1 ovarian): 0.0719 µM
- TGI (IGROV1 ovarian): > 100 µM
- GI50 (A498 renal): 0.0241 µM
- TGI (A498 renal): 3.93 µM
- GI50 (HS 578T breast): 3.56 µM
- TGI (HS 578T breast): > 100 µM
- GI50 (NCI-H522 lung): 5.55 µM
- TGI (NCI-H522 lung): > 100 µM
- GI50 (HCC-2998 colon): > 100 µM
- TGI (HCC-2998 colon): > 100 µM
- GI50 (ACHN renal): 0.0504 µM
- TGI (ACHN renal): > 100 µM
- GI50 (T-47D breast): > 100 µM
- TGI (T-47D breast): > 100 µM
- GI50 (EKVX NSCLC): 60.2 µM
- TGI (EKVX NSCLC): > 100 µM
- GI50 (OVCAR-5 ovarian): > 100 µM
- TGI (OVCAR-5 ovarian): > 100 µM
- GI50 (SF-539 CNS): 0.0371 µM
- TGI (SF-539 CNS): > 100 µM
- GI50 (SF-268 CNS): 11.1 µM
- TGI (SF-268 CNS): > 100 µM
- GI50 (786-0 renal): 0.0398 µM
- TGI (786-0 renal): 23.3 µM
- GI50 (PC-3 prostate): > 100 µM
- TGI (PC-3 prostate): > 100 µM

Structure (SMILES): OC(c1cc(-c2ccc(Cl)cc2)nc2c(Cl)cccc12)C1CCCCN1 (centres undefined)
- GI50 (SN12C renal): 1.6 µM
- TGI (SN12C renal): 3.27 µM
- GI50 (SK-OV-3 ovarian): 1.76 µM
- TGI (SK-OV-3 ovarian): 3.21 µM
- GI50 (UACC-62 melanoma): 1.69 µM
- TGI (UACC-62 melanoma): 3.17 µM
- GI50 (KM12 colon): 1.85 µM
- TGI (KM12 colon): 3.36 µM
- GI50 (SNB-75 CNS): 1.28 µM
- TGI (SNB-75 CNS): 2.68 µM
- GI50 (SK-MEL-28 melanoma): 1.76 µM
- TGI (SK-MEL-28 melanoma): 3.23 µM
- GI50 (MDA-MB-231 breast): 1.49 µM
- TGI (MDA-MB-231 breast): 3.02 µM
- GI50 (CAKI-1 renal): 1.16 µM
- TGI (CAKI-1 renal): 2.52 µM
- GI50 (SF-295 CNS): 1.68 µM
- TGI (SF-295 CNS): 3.28 µM
- GI50 (NCI-H460 lung): 1.64 µM
- TGI (NCI-H460 lung): 3.15 µM
- GI50 (OVCAR-8 ovarian): 2.11 µM
- TGI (OVCAR-8 ovarian): 4.63 µM
- GI50 (ACHN renal): 1.53 µM
- TGI (ACHN renal): 2.88 µM
- GI50 (DU-145 prostate): 1.71 µM
- TGI (DU-145 prostate): 3.1 µM
- GI50 (HOP-92 NSCLC): 1.02 µM
- TGI (HOP-92 NSCLC): 2.36 µM
- GI50 (OVCAR-3 ovarian): 1.81 µM
- TGI (OVCAR-3 ovarian): 3.35 µM
- GI50 (OVCAR-5 ovarian): 1.66 µM
- TGI (OVCAR-5 ovarian): 3.26 µM
- GI50 (SF-539 CNS): 1.7 µM
- TGI (SF-539 CNS): 3.15 µM
- GI50 (SF-268 CNS): 1.78 µM
- TGI (SF-268 CNS): 3.4 µM
- GI50 (PC-3 prostate): 1.46 µM
- TGI (PC-3 prostate): 2.91 µM
- GI50 (COLO 205 colon): 1.7 µM
- TGI (COLO 205 colon): 3.17 µM
